Assay results published in patent publication US9290688B2, “Alkaline microbial enhanced oil recovery” (GEO FOSSIL FUELS, LLC, priority 2011, dated 2016).
Numbered stars: 1 amine (or outer) side, 2 acyl side, 3 side chain; on linkers, the order of the positions; unused ones are H or OH. Bridge positions count the residues as written; N and C are the ends. Square brackets hold non-standard residues; d marks the D form. Peptide text beside a SMILES is read from it. X1 = CC(C)CCCCCCCCC[C@H](CC(=O)[*:1])O[*:2]

Columns and labels:
[1] = biological target: T1, 3-ketothiolase I (Rattus norvegicus, UniProt P13437); conditions: cited from earlier work
T1 sequence (P13437 1-397): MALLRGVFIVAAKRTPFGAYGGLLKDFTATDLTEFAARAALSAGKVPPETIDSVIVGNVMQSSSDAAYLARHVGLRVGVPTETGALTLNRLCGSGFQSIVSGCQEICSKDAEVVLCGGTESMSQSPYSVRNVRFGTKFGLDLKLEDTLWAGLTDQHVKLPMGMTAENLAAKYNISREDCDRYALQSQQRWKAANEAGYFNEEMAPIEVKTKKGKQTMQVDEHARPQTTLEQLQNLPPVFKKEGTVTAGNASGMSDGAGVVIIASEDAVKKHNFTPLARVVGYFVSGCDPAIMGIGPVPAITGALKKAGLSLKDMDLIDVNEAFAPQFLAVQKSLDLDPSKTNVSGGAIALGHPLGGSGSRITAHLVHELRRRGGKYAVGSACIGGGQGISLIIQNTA

[2] = system: Rhodococcus rhodochrous ATCC #53968; test: End of digestion: oil and aqueous volumes, acid number by alcoholic alkaline extraction and back titration; assay type: cell-based; conditions: one ml of oil, alcoholic alkaline extraction, back titration; acrylic acid value per gram of oil emulsion
Method: An oil degrading microorganism was used to evaluate the use of chemical inhibitors to slow the utilization of hydrocarbons in petroleum. In a non-limiting example, three different chemical compounds that have been reported to inhibit beta-oxidation were tested in oil and culture medium on a petroleum sample with a strain of Rhodococcus rhodochrous ATCC #53968 in m9 minimal medium. To test the ability of each chemical inhibitor to slow the consumption of fatty acids a culture of bacteria was grown on a crude oil sample for a period of three days with crude petroleum oil as the only carbon source. Four separate flasks were set up, each with an oil to aqueous media ratio of 1 to 5 (10 ml of crude oil to 50 ml of culture medium). Each of the three chemical inhibitors was added to a separate flask and a fourth flask was allowed to digest without the addition of a chemical inhibitor as a control. The flasks were shaken at a room temperature of about 25° C. under aerobic conditions. The progress of the microbial digestion was monitored by the optical density at 600 nm and by visual inspection of the brown oil color in the aqueous phase. Three days after the addition of inhibitors, or a total of six days of incubation with oil, a small sample of oil (0.31 g) was removed. A second sample of the same size was remover after another 6 days. The organic acids were extracted from each oil sample with 1% NaOH in 70% ethanol. […]
At the end of the experiment the oil and water were separated and the volume determined. […] This would have under reported the amount of methyl esters determined by GC analysis. The amount of aqueous phase was determined to be 22.5 ml for the acrylic acid sample and 46 ml, 48 ml and 47.5 ml for the others. […] The calculated acid number for the uninhibited digestion was 5 mg of KOH per gram. The other two inhibited digestions were analyzed to be 4.5 mg for the 2-bromooctanoic acid and 6.5 for the 2-bromohexadecanoic acid inhibited digestion. The undigested oil was determined to have an acid number of 6.5 mg of KOH by analysis of a one gram sample and a 10 gram sample. […]

[3] = system: Rhodococcus rhodochrous ATCC #53968; test: Digestion of Red River crude oil with and without beta-oxidation inhibitors; GC of methyl esters of extracted organic acids; assay type: cell-based; conditions: for Total GC (all peaks integrated by the GC integrator): 0.31 g oil sample; for conv. To umoles FA: approximately 1.0 micromoles per 100 area units; for Cal. AN (calculated acid number): estimated from GC areas
Method: (§1) An oil degrading microorganism was used to evaluate the use of chemical inhibitors to slow the utilization of hydrocarbons in petroleum. In a non-limiting example, three different chemical compounds that have been reported to inhibit beta-oxidation were tested in oil and culture medium on a petroleum sample with a strain of Rhodococcus rhodochrous ATCC #53968 in m9 minimal medium. To test the ability of each chemical inhibitor to slow the consumption of fatty acids a culture of bacteria was grown on a crude oil sample for a period of three days with crude petroleum oil as the only carbon source. Four separate flasks were set up, each with an oil to aqueous media ratio of 1 to 5 (10 ml of crude oil to 50 ml of culture medium). Each of the three chemical inhibitors was added to a separate flask and a fourth flask was allowed to digest without the addition of a chemical inhibitor as a control. The flasks were shaken at a room temperature of about 25° C. under aerobic conditions. The progress of the microbial digestion was monitored by the optical density at 600 nm and by visual inspection of the brown oil color in the aqueous phase. Three days after the addition of inhibitors, or a total of six days of incubation with oil, a small sample of oil (0.31 g) was removed. A second sample of the same size was remover after another 6 days. The organic acids were extracted from each oil sample with 1% NaOH in 70% ethanol. The samples were shaken vigorously for one minute. The aqueous extract material was then extracted with hexane to remove any trace of oil. The samples of extracted organic acids were then dried under vacuum and converted to methyl esters with BF3 in methanol.
The mixtures of methyl esters were analyzed by GC (gas chromatography) using a HP (Hewlett Packard) 5890 GC with an Agilent Technologies capillary column, HP-5 (crosslinked 5% PH) ME Siloxane 0.25 micrometer coating with a length of 30 meter and a column ID (internal diameter) of 0.32 mm. Helium was used as a carrier gas. Detection was by a FID detector and integration of peak areas was done with a HP 3396 integrator. The temperature program held an initial temperature of 40° C. for 1.0 minutes then increased at 15 degrees per minute to 280° C., and finally held at a temperature of 280° C. for 5 minutes. To quantify the amount of organic acids extracted by this procedure, a stock solution of 2-bromooctanoate and 2-bromohexadecanoate were added to a sample of undigested Red River crude petroleum oil and then extracted by the same procedure as the bio-digested oil samples. The average area for theses two organic acids was used to estimate the amount of organic acids in micromoles per area unit determined by the GC integrator. The number was calculated to be approximately 1.0 micromoles per 100 area units. The area units for each of the GC peaks are list in Table 2. This number was used to estimate the micromoles organic acids extracted from the oil. This estimate was used to calculate the number of mg of KOH that equaled the number of micromoles of organic acid estimated. This number is listed on the last row in Table 2 as the calculated AN (acid number) for each digestion experiment. These estimated numbers are only based on organic acids that are hydrophobic enough to stay in the oil phase and not move into the aqueous phase. Organic acids measured include the carboxylic acids made by the bacteria and that have been secreted out of the cell and have migrated back to the oil phase. They are also hydrocarbons that are small enough to be extracted into the ethanol aqueous extraction solvent. This number is likely to be less than the total acid number (TAN), a measure often used to evaluate crude petroleum for amenability to alkaline waterflooding.
The earlier eluting peaks are believed to represent methyl ester of lighter hydrocarbon carboxylic acids and the later eluting peaks are believed to represent methyl ester of the heavier organic acids. […]

[4] = system: Rhodococcus rhodochrous ATCC #53968; test: Growth of bacteria on crude oil with inhibitors, optical density at 600 nm; assay type: cell-based
Method: as §1
Digestion with the bacteria increases the total amount of carboxylic acids in all the samples. The digestions with the chemical beta-oxidation inhibitors produce about the same or a little more total methyl ester peaks than the bacterial digestion without an inhibitor. […] The later eluting peaks increase at a faster rate with the inhibitors than without. For example, the 12 day sample with no inhibitor increase from 5.9 to 45.9 area units for peaks up to 13 minutes. The sample with the acrylic acid inhibitor has an increase of from 5.9 to 43.7 area units, which is less than without inhibitor. The later eluting peaks increase from 3.6 to 14.3 without the inhibitor, but with acrylic acid the later peak areas increase to 22.5 area units. […] After 6 days of digestion the optical density had reached 2.23 for the uninhibited digestion as compared to 0.49 for the acrylic acid inhibited sample and 1.84 for the 2-bromooctanoic acid and 2.4 for the 2-bromohexadeconoic acid. After 12 days of digestion the uninhibited sample had reached 4.0 and the acrylic acid had increased to 1.7 and 2.2 and 2.4 for the other two inhibitors. Therefore, by this experimental analysis one can determine which inhibitors increase the carboxylic acid content or the acid number of the oil fastest with the least amount of oil consumption. The oil consumption can be determined by quantitation of remaining oil or by growth of bacteria were oil is the only carbon source. It appears that all the inhibitors helped reduce the utilization of fatty acids and the consumption of oil while producing an increase in acid number.

[5] = system: 3-ketoacyl-CoA thiolase; conditions: cited from earlier work
[6] = 100, pH 10
Method: Production of rhamnolipid biosurfactant was tested in engineered strains using the oil spreading assay (Fang et al DOE report 2007). Cells were grown three days at 30° C. in YCA-10 medium (per liter: 25 g NaCl, 5 g yeast extract, 5 g casamino Acids, 5 g Na2CO3, 1 g sodium glutamate, 1 g NH4Cl, 1 g KH2PO4, 1 g KCl, 200 mg MgSO4.7H2O, 36 mg FeCl2.4H2O, 0.36 mg MnCl.4H2O, adjusted to pH10.0 with KOH) containing 5 μg/ml chloramphenicol. For oil spreading assays, 50 mls of distilled water was dispensed into a 15 cm petri dish and 50 μl of petroleum oil was added to the surface of the water. A 10 μl drop of medium or culture suspension was added to the surface of the oil, and the diameter of the clear zone (if any) was measured after 2 minutes.

Question: Which “effect on 3-ketothiolase I” value [1] does the source give for `CCCCCCC(Br)C(=O)O` (racemic) [DL-2-bromooctanoate] here?
Answer: complete and irreversible inactivation

Question: Which results are given for `CCCCCCCCCCCCCCC(Br)C(=O)O` (stereo not shown) [Br C16, 2-bromohexadecanoic acid]?
Answer: final analysis acid number [2]: 6.5 mg KOH per gram; GC peak area, retention time 4.5 ([3]; 6 days): 0.226 area units; GC peak area, retention time 5.6 ([3]; 6 days): 1.099 area units; GC peak area, retention time 6.6 ([3]; 6 days): 3.049 area units; GC peak area, retention time 7.6 ([3]; 6 days): 2.553 area units; GC peak area, retention time 8.2 ([3]; 6 days): 0.705 area units; GC peak area, retention time 8.5 ([3]; 6 days): 1.395 area units; GC peak area, retention time 9.4 ([3]; 6 days): 1.131 area units; GC peak area, retention time 10.2 ([3]; 6 days): 1.11 area units; GC peak area, retention time 11 ([3]; 6 days): 4.105 area units; GC peak area, retention time 11.5 ([3]; 6 days): 2.76 area units; GC peak area, retention time 12.5 ([3]; 6 days): 4.8 area units; GC peak area, retention time 13.2 ([3]; 6 days): 1.26 area units; GC peak area, retention time 13.6 ([3]; 6 days): 1.997 area units; GC peak area, retention time 13.8 ([3]; 6 days): 3.211 area units; SubTotal peak area, later peaks eluting after 13 minutes ([3]; 6 days): 6.468 area units; SubTotal peak area, peaks eluting before 13 minutes ([3]; 6 days): 22.933 area units; Total GC area For 1 ml ([3]; 6 days): 1385; Total of all selected peaks ([3]; 6 days): 29.401 area units; Total GC (all peaks integrated by the GC integrator) ([3]; 6 days): 429.5 area units; conv. To umoles FA ([3]; 6 days): 13.85 µmol; Cal. AN (calculated acid number) ([3]; 6 days): 0.78 mg of KOH; GC peak area, retention time 4.2 ([3]; 12 days): 0.354 area units; GC peak area, retention time 4.5 ([3]; 12 days): 0.237 area units; GC peak area, retention time 5.6 ([3]; 12 days): 0.624 area units; GC peak area, retention time 6.6 ([3]; 12 days): 1.498 area units; GC peak area, retention time 7.6 ([3]; 12 days): 1.246 area units; GC peak area, retention time 8.2 ([3]; 12 days): 0.602 area units; GC peak area, retention time 8.5 ([3]; 12 days): 0.624 area units; GC peak area, retention time 9.4 ([3]; 12 days): 0.476 area units; GC peak area, retention time 10.2 ([3]; 12 days): 0.475 area units; GC peak area, retention time 11 ([3]; 12 days): 1.663 area units; GC peak area, retention time 11.5 ([3]; 12 days): 3.922 area units; GC peak area, retention time 12.3 ([3]; 12 days): 3.095 area units; GC peak area, retention time 13 ([3]; 12 days): 2.495 area units; GC peak area, retention time 13.2 ([3]; 12 days): 3.584 area units; GC peak area, retention time 13.4 ([3]; 12 days): 3.088 area units; GC peak area, retention time 13.6 ([3]; 12 days): 2.779 area units; GC peak area, retention time 13.8 ([3]; 12 days): 4.626 area units; GC peak area, retention time 14.2 ([3]; 12 days): 0.762 area units; SubTotal peak area, later peaks eluting after 13 minutes ([3]; 12 days): 17.334 area units; SubTotal peak area, peaks eluting before 13 minutes ([3]; 12 days): 14.816 area units; Total GC area For 1 ml ([3]; 12 days): 828; Total of all selected peaks ([3]; 12 days): 32.15 area units; Total GC (all peaks integrated by the GC integrator) ([3]; 12 days): 256.8 area units; conv. To umoles FA ([3]; 12 days): 8.28 µmol; Cal. AN (calculated acid number) ([3]; 12 days): 0.46 mg of KOH; optical density ([4]; after 6 days of digestion, crude oil only carbon source): 2.4; optical density ([4]; after 12 days of digestion): 2.4

Question: Which “effect on 3-ketoacyl-CoA thiolase in P. fluorescens” value [5] does the source give for `O=C(O)c1ccccc1O` [Salicylic acid] here?
Answer: inhibit

Question: For `CC(C)CCCCCCCCC[C@@H]1CC(=O)N[C@@H](CCC(=O)O)C(=O)N[C@@H](CC(C)C)C(=O)N[C@H](CC(C)C)C(=O)N[C@@H](C(C)C)C(=O)N[C@@H](CC(=O)O)C(=O)N[C@H](CC(C)C)C(=O)N[C@@H](CC(C)C)C(=O)O1` [Surfactin (purified)] (EL[dL]VD[dL]L; linker N-C via X1), which Clear zone diameter [6] is on record?
Answer: 13 mm
